The values that follow come from patent EP0213526A1, “Spergualin-related compounds, a process for their preparation and their use as medicaments” (MICROBIAL CHEMISTRY RESEARCH FOUNDATION, priority 1985, dated 1987).

In assay [1] the test system is mouse leukemia L-1210. In words: Therapeutic effects on cancer in mice (life prolongation, mouse leukemia L-1210). The class given is in vivo. Particulars: 6 consecutive days, male BDF1 mice; for Percent life pro-longation: 10^5 L-1210 cells i.p., T/C x 100; for Percent survival for 30 days: groups of four, L-1210. The protocol:
Male BDF1 mice (5-wk old) in groups comprising four heads were inoculated intraperitoneally with 10^5 cells of mouse leukemia L-1210. Starting on the day of inoculation, a selected sample dissolved in a physiological saline solution was administered intraperitoneally to each animal for 6 consecutive days on a one-dose-per-day basis. After keeping the animals for 30 days, the life-prolongation effect of sample was determined form the following formula:
Life-prolongation effect = T/C x 100 = (Average number of days of survival of the treated group / Average number of days of survival of the control group) x 100.

The subject of assay [2] is mouse leukemia L-1210. Particulars: healing experiments, from Japanese Patent Public Disclosure No. 48975/1982; cited from earlier work.
For the next assay, the system named is mouse leukemia FL-4. Particulars: healing experiments, from Japanese Patent Public Disclosure No. 48975/1982; cited from earlier work.
The next assay relates to Ehrlich cancer. Particulars: healing experiments, from Japanese Patent Public Disclosure No. 48975/1982; cited from earlier work.
Another assay concerns sarcoma 180 (S-180). The following applies: healing experiments, from Japanese Patent Public Disclosure No. 48975/1982; cited from earlier work.
Assay [3] deals with Gram-positive microorganisms. The following applies: background statement; cited from earlier work.
For assay [4], the system named is Gram-negative microorganisms. The following applies: background statement; cited from earlier work.
Where [5] appears, read: Dose 0.20 mg/kg/day intraperitoneally.
[6] abbreviates: Dose 0.39 mg/kg/day intraperitoneally.
Setting [7] is: Dose 0.78 mg/kg/day intraperitoneally.
Where [8] appears, read: Dose 1.56 mg/kg/day intraperitoneally.
Where [9] appears, read: Dose 3.13 mg/kg/day intraperitoneally.
Where [10] appears, read: Dose 6.25 mg/kg/day intraperitoneally.
[11] abbreviates: Dose 12.5 mg/kg/day intraperitoneally.
Where [12] appears, read: Dose 25 mg/kg/day intraperitoneally.
[13] abbreviates: Dose 50 mg/kg/day intraperitoneally.

Bounds are passed on as bounds.

With `N=C(N)Nc1ccc(CCCC(=O)NC(O)C(=O)NCCCCNCCCN)cc1` (racemic) [Compound 1, 10-{N-[4-(4-guanidinophenyl)butanoyl]-α-hydroxyglycyl}-1,5,10-triazadecane], the Percent life pro-longation with mouse leukemia L-1210 [1] (setting [5]) was 110%; with mouse leukemia L-1210 [1] (setting [6]) it was 120%; with mouse leukemia L-1210 [1] (setting [7]) it was 155%; in the assay with mouse leukemia L-1210 [1] (setting [8]), 197%; with mouse leukemia L-1210 [1] (setting [9]), more than 335%; in the assay with mouse leukemia L-1210 [1] (setting [10]), more than 363%. Also, the Percent life pro-longation in the assay with mouse leukemia L-1210 [1] (setting [11]) is on record as more than 401%; in the assay on mouse leukemia L-1210 [1] (setting [12]), more than 356%; in the assay on mouse leukemia L-1210 [1] (setting [13]), 0%. Further, the “Percent survival for 30 days” value with mouse leukemia L-1210 [1] (setting [5]) is on record as 0/4; with mouse leukemia L-1210 [1] (setting [6]) it was 0/4; with mouse leukemia L-1210 [1] (setting [7]), 0/4; in the assay on mouse leukemia L-1210 [1] (setting [8]), 0/4; with mouse leukemia L-1210 [1] (setting [9]), 2/4; with mouse leukemia L-1210 [1] (setting [10]), 2/4. Further, the “Percent survival for 30 days” value in the assay with mouse leukemia L-1210 [1] (setting [11]) is 3/4; in the assay on mouse leukemia L-1210 [1] (setting [12]), 2/4; in the assay with mouse leukemia L-1210 [1] (setting [13]), 0/4.
As to `COC(NC(=O)CCCc1ccc(NC(=N)N)cc1)C(=O)NCCCCNCCCN` (racemic) [Compound 2, 10-{N-[4-(4-guanidinophenyl)butanoyl]-α-methoxyglycyl}-1,5,10-triazadecane], the Percent life pro-longation is 104% in the assay with mouse leukemia L-1210 [1] (setting [5]); 111% with mouse leukemia L-1210 [1] (setting [6]); 118% with mouse leukemia L-1210 [1] (setting [7]); 171% with mouse leukemia L-1210 [1] (setting [8]); more than 368% in the assay on mouse leukemia L-1210 [1] (setting [9]); more than 403% with mouse leukemia L-1210 [1] (setting [10]). Also, the results for the Percent life pro-longation in the assay on mouse leukemia L-1210 [1] (setting [11]), in the assay on mouse leukemia L-1210 [1] (setting [12]) and in the assay with mouse leukemia L-1210 [1] (setting [13]) were more than 417%, more than 417% and 0%, respectively. Also, the “Percent survival for 30 days” value in the assay on mouse leukemia L-1210 [1] (setting [5]) was 0/4; in the assay on mouse leukemia L-1210 [1] (setting [6]), 0/4; in the assay with mouse leukemia L-1210 [1] (setting [7]), 0/4; with mouse leukemia L-1210 [1] (setting [8]) it was 0/4; in the assay with mouse leukemia L-1210 [1] (setting [9]), 3/4; with mouse leukemia L-1210 [1] (setting [10]) it was 3/4. Also, the “Percent survival for 30 days” value in the assay with mouse leukemia L-1210 [1] (setting [11]) is given as 4/4; in the assay with mouse leukemia L-1210 [1] (setting [12]) it was 4/4; in the assay with mouse leukemia L-1210 [1] (setting [13]) it was 0/4.
Turning to `N=C(N)NCCCC[C@H](O)CC(=O)NC(O)C(=O)NCCCCNCCCN` (stereo partly drawn) [Spergualin], the “therapeutic and life-prolonging effects” value in the assay with mouse leukemia L-1210 [2] is “appreciable therapeutic and life-prolonging effects”; in the assay with mouse leukemia FL-4 it was “appreciable therapeutic and life-prolonging effects”; with Ehrlich cancer it was “appreciable therapeutic and life-prolonging effects”; in the assay with sarcoma 180 (S-180) it was “appreciable therapeutic and life-prolonging effects”. For the same molecule, the “effect of inhibiting the growth” value in assay [3] and in assay [4] was “inhibiting the growth” in each case.
